In patent US11364248B2 (AMGEN INC., priority 2017, dated 2022):
Where two headings read alike, the source gives them in different places.

Tests used:
Mcl-1/Bim interaction = Mcl-1/Bim interaction (Homo sapiens (Human), UniProt Q07820); assay: Cell Free Mcl-1: Bim Affinity Assay (Mcl-1 HTRF); assay type: binding; settings: TR-FRET, recombinant human Mcl-1(171-327), biotin-Bim(51-76); read-out: Mel-1 HTRF IC50
Protocol: Cell Free Mcl-1: Bim Affinity Assay (Mcl-1 HTRF)
The inhibition of the Mcl-1/Bim interaction was measured using a time-resolved fluorescence resonance energy transfer (TR-FRET) assay. The recombinant human Mcl-1 (C-terminally 6×His tagged Mcl-1 containing residues 171-327) was generated at Amgen Inc (Thousand Oaks, Calif.). A biotinylated peptide derived from human Bim (residues 51-76) was purchased from CPC Scientific (San Jose, Calif.). The TR-FRET assay was conducted in a 384-well white OptiPlate™ (PerkinElmer, Waltham, Mass.) in a total volume of 40 μL. The reaction mixture contained 0.1 nM Mcl-1(171-327), 0.05 nM biotin-Bim(51-76), 0.05 nM LANCER Eu-W1024 Anti-6×His (PerkinElmer), 0.072 nM Streptavidin-Xlent (Cisbio, Bedford, Mass.), and serially diluted test compounds in the binding buffer of 20 mM Hepes, pH 7.5, 150 mM NaCl, 0.016 mM Brij©35, and 1 mM dithiothreitol. Test compounds were pre-incubated with Mcl-1(171-327) and biotin-Bim (51-76) for 60 min before addition of the detection mixture (LANCE Eu-W1024 Anti-6×His and Streptavidin-Xlent). The reaction plates were further incubated overnight and then were read on an Envision® multimode reader (PerkinElmer). Fluorescence signals were measured at 620 nm (40-nm bandwidth) and 665 nm (7.5-nm bandwidth) with a 60 μs delay after excitation at 320 nm (75-nm bandwidth). The signal ratio at 665/620 nm corresponded to the Mcl-1/Bim interaction and was used in all data analyses. The IC50 values of test compounds were determined from duplicate data by analyzing competition curves using a four-parameter sigmoidal model in GraphPad Prism (GraphPad Software, San Diego, Calif.) or in Genedata Screener® (Genedata, Basel, Switzerland).

OPM-2 = assay: Cell Viability Assay (OPM-2 10 FBS); assay type: cell-based, human; settings: OPM-2 cells, CellTiter-Glo, read-out: OPM-2 10% FBS IC50 IP
In short: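 OPM-2 myeloma cells seeded at 3000 cells/well in RPMI 1640 with 10% FBS and exposed to serially diluted compounds for 16 h at 37° C., 5% CO2.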

Sequence of Mcl-1/Bim interaction (Q07820 171-327): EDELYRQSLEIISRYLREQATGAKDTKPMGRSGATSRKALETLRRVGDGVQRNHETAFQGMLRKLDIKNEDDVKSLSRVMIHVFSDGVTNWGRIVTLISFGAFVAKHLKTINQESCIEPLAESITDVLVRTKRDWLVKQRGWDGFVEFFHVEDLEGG

| Structure (SMILES) | IC50 (Mcl-1/Bim interaction) | IC50 (OPM-2; 16 h) | IC50 (OPM-2; Homo sapiens, OPM-2, 16 h) |
| --- | --- | --- | --- |
| C[C@@H]1[C@@H](C)CCC[C@H](C2OCCO2)[C@@H]2CC[C@H]2CN2C[C@@]3(CCCc4cc(Cl)ccc43)COc3ccc(cc32)C(=O)NS1(=O)=O [Example 3, (1S,3′R,6′R,7′S,11′S,12′R)-6-chloro-7′-(1,3-dioxolan-2-yl)-11′,12′-dimethyl-3,4-dihydro-2H,15′H-spiro[naphthalene-1,22′-[20]oxa[13]thia[1,14]diazatetracyclo [14.7.2.0~3,6~.0~19,24~]pentacosa[16,18,24]trien]-15′-one 13′,13′-dioxide] | 1.28 nM | 926 nM | – |
| C[C@@H]1[C@@H](C)CCC[C@H]([C@H]2OC[C@@](CO)(N(C)C)CO2)[C@@H]2CC[C@H]2CN2C[C@@]3(CCCc4cc(Cl)ccc43)COc3ccc(cc32)C(=O)NS1(=O)=O (relative stereo) [Example 81, (1S,3′R,6′R,7′S,11′S,12′R)-6-chloro-7′-(cis-5-(dimethylamino)-5-(hydroxymethyl)-1,3-dioxan-2-yl)-11′,12′-dimethyl-3,4-dihydro-2H,15′H-spiro[naphthalene-1,22′-[20]oxa[13]thia[1,14]diazatetracyclo [14.7.2.0~3,6~.0~19,24~]pentacosa[16,18,24]trien]-15′-one 13′,13′-dioxide] | 3.32 nM | 2540 nM | – |
| C[C@@H]1[C@@H](C)CCC[C@@H]([C@H]2OC[C@@H](N(C)C)CO2)[C@@H]2CC[C@H]2CN2C[C@@]3(CCCc4cc(Cl)ccc43)COc3ccc(cc32)C(=O)NS1(=O)=O (relative stereo) [Example 2, (1S,3′R,6′R,7′R,11′S,12′R)-6-CHLORO-7′-(CIS-5-(DIMETHYLAMINO)-1,3-DIOXAN-2-YL)-11′,12′-DIMETHYL-3,4-DIHYDRO-2H,15′H-SPIRO[NAPHTHALENE-1,22′-[20]OXA[13]THIA[1,14]DIAZATETRACYCLO[14.7.2.0˜3,6˜.0˜19,24-]PENTACOSA[16,18,24]TRIEN]-15′-ONE 13′,13′-DIOXIDE] | 1.6 nM | 367 nM | – |
| C[C@@H]1[C@@H](C)CCC[C@H]([C@H]2OC[C@@H](N3CCCC3)CO2)[C@@H]2CC[C@H]2CN2C[C@@]3(CCCc4cc(Cl)ccc43)COc3ccc(cc32)C(=O)NS1(=O)=O [Example 19, (1S,3′R,6′R,7′S,11′S,12′R)-6-chloro-11′,12′-dimethyl-7′-(cis-5-(1-pyrrolidinyl)-1,3-dioxan-2-yl)-3,4-dihydro-2H,15′H-spiro[naphthalene-1,22′-[20]oxa[13]thia[1,14]diazatetracyclo [14.7.2.0~3,6~.0~19,24~]pentacosa[16,18,24]trien]-15′-one 13′,13′-dioxide] | 1.05 nM | 527 nM | – |
| C[C@@H]1CC[C@H]([C@H]2OC[C@@H](N(C)C)CO2)[C@@H]2CC[C@H]2CN2C[C@@]3(CCCc4cc(Cl)ccc43)COc3ccc(cc32)C(=O)NS(=O)(=O)C[C@@H]1C [Example 75, (1S,3′R,6′R,7′S,10′R,11′R)-6-chloro-7′-(cis-5-(dimethylamino)-1,3-dioxan-2-yl)-10′,11′-dimethyl-3,4-dihydro-2H,15′H-spiro[naphthalene-1,22′-[20]oxa[13]thia[1,14]diazatetracyclo [14.7.2.0~3,6~.0~19,24~]pentacosa[16,18,24]trien]-15′-one 13′,13′-dioxide] | 13 nM | 6770 nM | – |
| C[C@@H]1CC[C@H]([C@H]2OC[C@@H](N(C)C)CO2)[C@@H]2CC[C@H]2CN2C[C@@]3(CCCc4cc(Cl)ccc43)COc3ccc(cc32)C(=O)NS(=O)(=O)C[C@@H]1C [Example 76, (1S,3′R,6′R,7′S,10′R,11′R)-6-chloro-7′-(cis-5-(dimethylamino)-1,3-dioxan-2-yl)-10′,11′-dimethyl-3,4-dihydro-2H,15′H-spiro[naphthalene-1,22′-[20]oxa[13]thia[1,14]diazatetracyclo [14.7.2.0~3,6~.0~19,24~]pentacosa[16,18,24]trien]-15′-one 13′,13′-dioxide] | 6.24 nM | 2480 nM | – |
| CN[C@H]1CO[C@H]([C@H]2CCC[C@H](C)[C@@H](C)S(=O)(=O)NC(=O)c3ccc4c(c3)N(C[C@@H]3CC[C@H]32)C[C@@]2(CCCc3cc(Cl)ccc32)CO4)OC1 [Example 49, (1S,3′R,6′R,7′S,11′S,12′R)-6-chloro-11′,12′-dimethyl-7′-(trans-5-(methylamino)-1,3-dioxan-2-yl)-3,4-dihydro-2H,15′H-spiro[naphthalene-1,22′-[20]oxa[13]thia[1,14]diazatetracyclo [14.7.2.0~3,6~.0~19,24~]pentacosa[16,18,24]trien]-15′-one 13′,13′-dioxide] | 1.52 nM | 966 nM | – |

Now those with a lower IC50 (Mcl-1/Bim interaction), led by results:

| IC50 (Mcl-1/Bim interaction) | Structure (SMILES) | IC50 (OPM-2; 16 h) | IC50 (OPM-2; Homo sapiens, OPM-2, 16 h) |
| --- | --- | --- | --- |
| 0.217 nM | COCCN(C)[C@H]1CO[C@@H]([C@H]2CCC[C@H](C)[C@@H](C)S(=O)(=O)NC(=O)c3ccc4c(c3)N(C[C@@H]3CC[C@H]32)C[C@@]2(CCCc3cc(Cl)ccc32)CO4)OC1 [Example 71, (1S,3′R,6′R,7′S,11′S,12′R)-6-chloro-7′-(cis-5-((2-methoxyethyl)(methyl)amino)-1,3-dioxan-2-yl)-11′,12′-dimethyl-3,4-dihydro-2H,15′H-spiro[naphthalene-1,22′-[20]oxa[13]thia[1,14]diazatetracyclo [14.7.2.0~3,6~.0~19,24~]pentacosa[16,18,24]trien]-15′-one 13′,13′-dioxide] | 90 nM | – |
| 0.537 nM | CC(=O)N1C[C@@H]2O[C@@H]([C@H]3CCC[C@H](C)[C@@H](C)S(=O)(=O)NC(=O)c4ccc5c(c4)N(C[C@@H]4CC[C@H]43)C[C@@]3(CCCc4cc(Cl)ccc43)CO5)O[C@@H]2C1 [Example 38, (1S,3′R,6′R,7′S,11′S,12′R)-7′-((2r,3aR,6aS)-5-acetyltetrahydro-3aH-[1,3]dioxolo[4,5-c]pyrrol-2-yl)-6-chloro-11′,12′-dimethyl-3,4-dihydro-2H,15′H-spiro[naphthalene-1,22′-[20]oxa[13]thia[1,14]diazatetracyclo [14.7.2.0~3,6~.0~19,24~]pentacosa[16,18,24]trien]-15′-one 13′,13′-dioxide] | 819 nM | – |
| 0.455 nM | C[C@@H]1[C@@H](C)CCC[C@@H]([C@H]2OC[C@@H](N3CC(O)C3)CO2)[C@@H]2CC[C@H]2CN2C[C@@]3(CCCc4cc(Cl)ccc43)COc3ccc(cc32)C(=O)NS1(=O)=O (single isomer, unassigned) [Example 61] | 1010 nM | – |
| 0.535 nM | C[C@@H]1[C@@H](C)CCC[C@H]([C@H]2OC[C@@H](N(C)C3CC3)CO2)[C@@H]2CC[C@H]2CN2C[C@@]3(CCCc4cc(Cl)ccc43)COc3ccc(cc32)C(=O)NS1(=O)=O [Example 69, (1S,3′R,6′R,7′S,11′S,12′R)-6-chloro-7′-(cis-5-(cyclopropyl(methyl)amino)-1,3-dioxan-2-yl)-11′,12′-dimethyl-3,4-dihydro-2H,15′H-spiro[naphthalene-1,22′-[20]oxa[13]thia[1,14]diazatetracyclo [14.7.2.0~3,6~.0~19,24~]pentacosa[16,18,24]trien]-15′-one 13′,13′-dioxide] | 415 nM | – |
| 0.837 nM | C[C@@H]1[C@@H](C)CCC[C@@H]([C@H]2OC[C@@H](CN(C)C)O2)[C@@H]2CC[C@H]2CN2C[C@@]3(CCCc4cc(Cl)ccc43)COc3ccc(cc32)C(=O)NS1(=O)=O (single isomer, unassigned) [Example 29] | 317 nM | – |
| 0.742 nM | C[C@@H]1[C@@H](C)CCC[C@@H]([C@H]2OC[C@@H](N3CC(Cl)C3)CO2)[C@@H]2CC[C@H]2CN2C[C@@]3(CCCc4cc(Cl)ccc43)COc3ccc(cc32)C(=O)NS1(=O)=O (single isomer, unassigned) [Example 55] | 465 nM | – |
| 0.448 nM | C[C@@H]1[C@@H](C)CCCC(C2OCC(CO)(N(C)C)CO2)[C@@H]2CC[C@H]2CN2C[C@@]3(CCCc4cc(Cl)ccc43)COc3ccc(cc32)C(=O)NS1(=O)=O (single isomer, unassigned) [Example 86] | – | 178 nM |
| 0.382 nM | C[C@@H]1[C@@H](C)CCC[C@H]([C@H]2OC[C@H](O)CO2)[C@@H]2CC[C@H]2CN2C[C@@]3(CCCc4cc(Cl)ccc43)COc3ccc(cc32)C(=O)NS1(=O)=O [Example 12, (1S,3′R,6′R,7′S,11′S,12′R)-6-chloro-7′-(trans-5-hydroxy-1,3-dioxan-2-yl)-11′,12′-dimethyl-3,4-dihydro-2H,15′H-spiro[naphthalene-1,22′-[20]oxa[13]thia[1,14]diazatetracyclo [14.7.2.0~3,6~.0~19,24~]pentacosa[16,18,24]trien]-15′-one 13′,13′-dioxide] | 668 nM | – |
| 0.754 nM | C[C@@H]1[C@@H](C)CCC[C@@H]([C@H]2OC[C@@H](N3CC(F)C3)CO2)[C@@H]2CC[C@H]2CN2C[C@@]3(CCCc4cc(Cl)ccc43)COc3ccc(cc32)C(=O)NS1(=O)=O (single isomer, unassigned) [Example 51] | 1010 nM | – |
